The values that follow come from US20240115582A1, “USE OF SODIUM TRANS-[TETRACHLORIDOBIS(1H-INDAZOLE)RUTHENATE(III)] FOR TREATING CANCERS” (Bold Therapeutics Inc., priority 2020, published 2024).

In data set [1] the test system is BRAFMT CRC cells. Briefly: Cell death / caspase 3/7 activity after BOLD-100. The format is cell-based. Here is the method: (§1) Methods: Cell Titre Glo, Annexin V/PI high content screening, Flow Cytometry, Western blotting, Caspase 8, 3/7 activity, ROS-Glo^a H2O2, RNAi assays were used. RNA seq and bioinformatic analyses were performed on BOLD-100-treated BRAFMT/WT CRC cells, using the Illumina Novoseq platform and Reactome Pathway Analysis.
A.: Positive hits for primary siRNA screen against 178 target TSG. sRNA was carried out for 24 h, followed by treatment with BOLD-100 for 48 h. Forty-Six targets were identified, resulting in either increased sensitivity or resistance to BOLD-100 (based on robust z-score ±1). B. Positive hits from secondary siRNA screen using 2 additional siRNA sequences against 46 targets. C. CRC cells were pre-incubated with DMSO or 20 μM of the pan-caspase inhibitor, z-VAD-FMK for 3 h followed by treatment with BOLD-100 for 48 h following which, apoptosis was assessed by WB analyses for PARP (top) and caspase-3/7 activity assay (bottom). […] Apoptosis was assessed by WB analysis for PARP (left) and caspase-3/7 activity (right). […] Apoptosis was determined by WB for PARP (left) and caspase-3/7 activity levels (right).
A. BRAFMT CRC cells were treated with BOLD-100 for the indicated time and ATR/KAP1/CKH1/CHK2 expression/activity measured by WB. B. CRC cells were co-treated with BOLD-100 and AZD6738 for 48 h and phosphorylation/expression of ATR/KAP1 and the downstream kinases measured. […]

A further data set has as its system GRP78, CHOP. Description: Western blotting of UPR markers after BOLD-100. The format is cell-based. To be noted: treatment with BOLD-100. The protocol:
as §1
(§2) As illustrated in FIG. 2. BRAFMT, CMS1 CRC cells show increased sensitivity to treatment with BOLD-100. Upper: A. BRAFMT V600E HT-29 cells were treated with BOLD-100 for the indicated time and GRP78, CHOP and PARP levels determined by Western blotting (WB). B. HT-29 cells were treated with BOLD-100 for the indicated times and HSPA5, ATF4 and DDIT3 mRNA levels quantified using RT-PCR. Raw values were normalised to the expression of housekeeping genes ACTB and GAPDH and analysed using the ΔΔCT method. Lower: A. CRC cells were treated with increasing concentrations of BOLD-100 and cell viability determined using CellTitre-Glo® assay. IC50 was calculated using Prism software package. B. CRC cells were treated with BOLD-100 for 48 h. Apoptosis was assessed using Annexin V/propidium iodide (PI) staining by high-content screening. The graph indicates the percentage of positive stained cells following treatment with 100 μM BOLD-100. Mean of 3 independent experiments is shown.

The subject of data set [2] is pATR^T1989, pChk1^S345 and γH2AX. Description: Western blotting of ATR/CHK1 DNA damage signalling. Type of data set: cell-based. Here is the method: as §1
(§3) A. BRAFMT CRC cells were treated with BOLD-100 for the indicated time and ATR/KAP1/CKH1/CHK2 expression/activity measured by WB. B. CRC cells were co-treated with BOLD-100 and AZD6738 for 48 h and phosphorylation/expression of ATR/KAP1 and the downstream kinases measured. C. CRC cells were treated with BOLD-100 for the indicated times and generation of ROS measured using a ROS-Glo™ H2O2 assay. D. and E. WB and caspase 3/7 activity in cells pre-treated with NAC for 3 h followed by treatment with BOLD-100 for an additional 24h.

Another data set in a line: Degradation in water. The format is physicochemical. The protocol:
One skilled in the art will recognize that limiting this degradation reaction would be advantageous to obtaining the highest purity product. […] In one aspect of the invention, the sodium trans-[tetrachlorobis(1H-indazole)ruthenate (III)] solution is cooled to 4° C. during the formulation process. In another aspect of the invention, the sodium trans-[tetrachlorobis(1H-indazole)ruthenate (III)] solution is cooled to 2-8° C. during the formulation process. In another aspect of the invention, the sodium trans-[tetrachlorobis(1H-indazole)ruthenate (III)] solution is cooled to 2-15° C. during the formulation process.

Data set [3] has as its system BRAFMT CRC cells. Briefly: ROS-Glo H2O2 assay. Type of data set: cell-based. The protocol:
as §1, §3

In a further data set the test system is BRAFMT, MSS CRC cells. Briefly: CellTitre-Glo and Annexin V/PI sensitivity studies. Type of data set: cell-based. To be noted: isogenic paired and non-isogenic V600E BRAFMT and BRAFWT panel. The protocol: Materials: A panel of isogenic paired and non-isogenic V600E BRAFMT and BRAFWT cells were used. BOLD-100, a ruthenium-based small molecule inhibitor, was obtained from BOLD Therapeutics. A FDA approved compound library was used.
as §1
as §2, with “The graph indicates the percentage of positive stained cells following treatment with 100 μM BOLD-100. Mean of 3 independent experiments is shown.” left out

Data set [4] relates to BRAFMT CRC cells. Description: Combination of BOLD-100 with ATRi, apoptosis (PARP/cleaved caspase-3 WB, caspase 3/7 activity, PI flow cytometry). The format is cell-based. To be noted: for cell death following BOLD-100 treatment: co-treated with BOLD-100 for 48 h, BRAFMT CRC; for apoptosis when combined with BOLD-100: in particular in BRAFMT CRC cells. Here is the method: HT-29 and VACO432 CRC cells were co-treated with BOLD-100 and ATRi AZD6738, M4344 or Berzosertib for 48 h and apoptosis was assessed using WB analyses for PARP and cleaved caspase-3 (A) and caspase 3/7 activity assays (B). C. BRAFMT CRC cells VACO432, COL0205 and LIM2405 were co-treated with BOLD-100 and ATRi AZD6738, M4344 or Berzosertib for 48 h and apoptosis assessed by PI flow cytometry.

For data set [5], the system named is BRAFMT CRC cells. Description: Combination of BOLD-100 with ATRi, cell viability (CellTitre-Glo, clonogenic survival). The note with it: in particular in BRAFMT CRC cells. Type of data set: cell-based. Here is the method:
FDA approved drug screen targeting the significant pathways deregulated following BOLD-100 treatment in BRAFMT CRC. BRAFMT HT-29 (A) and VACO432 (B) cells were co-treated with BOLD-100, IC10, IC20, IC30 doses of 60 FDA approved drugs alone or in combination with BOLD-100 for 72 h and cell viability determined using the CellTitre-Glo® assay. Robust z-scores were calculated for combination treatment and normalized to effect of 50 μM BOLD-100. Combinations with r-Z score of <−1 were considered to enhance sensitivity to BOLD-100 treatment. Cell viability for combined BOLD-100/AZD6738 treatment was graphed using GraphPad Prism 8.0. C. Clonogenic survival assays in BRAFMT LIM2405, VACO432 and RKO CRC cells following co-treatment with BOLD-100 and AZD6738 for 14 days. Survival was graphed using GraphPad Prism 8.0.

On to `[Cl][Ru]([Cl])([Cl])[Cl].[Na+].c1ccc2[nH]ncc2c1.c1ccc2[nH]ncc2c1` [BOLD-100, Sodium trans-[tetrachloridobis(1H-indazole)ruthenate(III)]], for which the “type of cell death” value with BRAFMT CRC cells [1] is reported as “caspase-8 dependent cell death”. In the data set on GRP78, CHOP, the GRP78 levels entry was “early decreases” and the “expression levels of the endoplasmic reticulum stress protein CHOP” value is reported as “increases”. The “pATR^T1989, pChk1^S345 and γH2AX expression levels” value in data set [2] (BRAFMT cells) is “rapid and potent increases”. For the same compound, the stability in water result in the data set “Degradation in water” is “can degrade in water to Compound A”. Besides, the ROS entry in the data set with BRAFMT CRC cells [3] was “acute increases in ROS”. Also, the IC50 in the data set with BRAFMT, MSS CRC cells is 9.25 to 31 µM.

Turning to `C[C@@H]1COCCN1c1cc(C2([S@](C)(=N)=O)CC2)nc(-c2cc[nH]c3nccc2-3)n1` [AZD6738], in the data set on BRAFMT CRC cells [4], the “cell death following BOLD-100 treatment” value is “increase cell death” and the “apoptosis when combined with BOLD-100” value is “apoptosis”. The “interaction when combined with BOLD-100” value in the data set with BRAFMT CRC cells [5] is on record as “strong synergy”.

On to `Nc1nn2cc(F)cnc2c1C(=O)Nc1cncc(F)c1N1CCC(C(=O)N2CCN(C3COC3)CC2)CC1` [M4344], for which, in the data set with BRAFMT CRC cells [4], the “cell death following BOLD-100 treatment” value is listed as “increase cell death” and the “apoptosis when combined with BOLD-100” value is reported as “apoptosis”. For the same compound, in the data set with BRAFMT CRC cells [5], the “interaction when combined with BOLD-100” value is listed as “strong synergy”.

Turning to `CNCc1ccc(-c2cc(-c3nc(-c4ccc(S(=O)(=O)C(C)C)cc4)cnc3N)on2)cc1` [Berzosertib], the “cell death following BOLD-100 treatment” value in the data set with BRAFMT CRC cells [4] is “increase cell death”.

With `CC(=O)N[C@@H](CS)C(=O)O` [NAC], the “effect on cell death following BOLD-100 treatment” value with BRAFMT CRC cells [1] (ROS scavenger) was “rescued cell death”. The “effect on BOLD-100 induced CHOP, pATR^T1989, pChk1^S345 and γH2AX levels” value in data set [2] (ROS scavenger, BRAFMT CRC cells) is “abrogated”.
